Columns and labels:
SIRT3 = assay: NR in SIRT3−/− mouse embryonic fibroblasts; assay type: cell-based; conditions: 0.5 mM, 24 hrs
Procedure: Cell Culture, Transfection, Adenoviral Infection and Mitochondrial Characterization. HEK293T, MEF and C2C12 cells were cultured in DMEM (4.5 g/l glucose, 10% FCS). PARP-1^+/+ and PARP-1^−/− MEFs were prepared as described in (Menissier-de Murcia et al., 1997). SIRT1 and MEFs were kindly provided by Fred Alt (Chea et al., 2005). SIRT3 MER were established according to standard techniques from conditional SERT3^−/− mice. […] Mitochondrial charge determination was performed as described (Bai et al., 2001) and DNA strand breaks were quantified by TUNEL assays according to the manufacturer's instructions (Millipore).
Immunoprecipitation, SDS-PAGE, Western Blotting. […] Reactions were developed by enhanced chemiluminescence (Amersham, Little Chalfont, UK), PGC-1α, FOXO1 and Ndufa9 acetylation levels were analyzed by immunoprecipitation from cellular or nuclear lysates of tissues with anti-PGC-1α (Millipore), anti-FOXO1 (Cell Signaling, Danvers, Mass., USA) and anti-Ndufa9 (Abcam) antibody followed by Western blot using an acetyl-lysine antibody (Cell Signaling) that was normalized to total PGC-1a/FOXO1/Ndufa9 levels (Lagouge et al., 2006; Rodgers et al., 2005). […] All blots were quantified by densitometry using ImageJ software. […]

C57Bl/6J mice = assay: Sirtuin activity and mitochondrial biogenesis in tissues after chronic NR feeding; assay type: in vivo
Procedure: mRNA and mtDNA Analysis. Total RNA was prepared using TRIzol (Invitrogen) according to the manufacturer's instructions. RNA was treated with DNase, and 2 μg of RNA was used for reverse transcription (RT). cDNA was purified on QIAquick PCR cleanup columns (Qiagen, Valencia, Calif., USA). 50× diluted cDNA was used for RT-quantitative PCR (RT-VCR) VCR) reactions (Bai et al., 2007). The RT-qPCR reactions were performed using the Light-Cycler system (Roche Applied Science) and a qPCR Supermix (Qiagen) with the primers for mice summarized in Table 1 and 4, and with the primers for worms summarized on Table 7. mtDNA quantification was performed as described (Lagouge et al., 2006) with the primers indicated in Table 2 and 5.
Immunoprecipitation, SDS-PAGE, Western Blotting. Cells were lysed in lysis buffer (50 mM Tris, […], EDTA 1 mM, NP40 1%, nicotinamide 5 mM, Na-butyrate 1 in M, protease inhibitors pH7.4). Proteins were separated by SDS-PAGE and transferred onto nitrocellulose membranes. The origin of the primary and secondary antibodies used can be found as supplemental experimental procedures. Reactions were developed by enhanced chemiluminescence (Amersham, Little Chalfont, UK), PGC-1α, FOXO1 and Ndufa9 acetylation levels were analyzed by immunoprecipitation from cellular or nuclear lysates of tissues with anti-PGC-1α (Millipore), anti-FOXO1 (Cell Signaling, Danvers, Mass., USA) and anti-Ndufa9 (Abcam) antibody followed by Western blot using an acetyl-lysine antibody (Cell Signaling) that was normalized to total PGC-1a/FOXO1/Ndufa9 levels (Lagouge et al., 2006; Rodgers et al., 2005). In HEK293T cells HA-tagged PGC-1α was overexpressed and was immunoprecipitated using an anti-HA. In C2C12 myotubes, FLAG-HA tagged PGC-1α was introduced through adenoviral delivery 2 days before treatments, then IP was performed using anti-FLAG antibody and samples were processed as described. All blots were quantified by densitometry using ImageJ software. Poly(ADP-Ribose) detection was performed as previously described with slight modifications (Bai et al., PARP-1 inhibition increases mitochondrial metabolism through SIRT1 activation. Cell Metab 13, 461-468. (2011)) Briefly, PAR was detected by using a monoclonal anti-PAR antibody (Alexis, Lausanne Switzerland) by Western blotting of total protein lysates, using either […] of total worm protein lysates, […] of liver protein lysate or 200 g of muscle total protein extracts. PGC-1 acetylation was determined using PGC-1 immunoprecipitates from 2 mg of protein extracts, as described in Canto et al. (Canto et al., AMPK regulates energy expenditure by modulating NAD+ metabolism and SIRT1 activity. Nature 458, 1056 (2009)).
Mitochondrial DNA Measurement The assay was performed as described (Lagouge et al., 2006). DNA. was extracted using the standard proteinase K digestion following phenol-chloroform extraction. Mitochondrial and genomic DNA was determined using specific primers in qPCR reactions (primers summarized in Table 2 and 5.) and was expressed as percentage of WT.
Determination of Protein Acetylation Status PGC-1α, FOXO1 and Ndufa9 acetylation was analyzed by immunoprecipitation of PGC-1, FOXO1 and Nduf9a from nuclear lysates of tissues with anti-PGC-1α (Millipore), anti-FOXO1 (1 mg, Cell Signaling, Danvers, Mass., USA), or Ndufa9 (Abeam) antibody followed by Western blot using an acetyl-lysine antibody (Cell Signaling) that was normalized to total PGC-1α/FOXO1/Ndufa9 (Canto et al., 2009). Tribulin acetylation was assessed by Western blotting of total protein samples by acetylated tubulin-specific antibody (Sigma) that was then normalized for total tubrilin (Santa Cruz).

PDK4 and UCP-3 promoters = assay: ChIP of PGC-1α promoter occupancy in C2C12 myotubes; assay type: cell-based; conditions: 1 μM, 48 h
Procedure: Chromatin Immunoprecipitation (ChIP). ChIP was performed according to (Bai et al., 2007). FLAG-HA-PGC-1 (Rodgers et al., 2005) was introduced by adenoviral transfer into C2C12 myotubes after 48 h of differentiation and cells were cultured for an additional 2 days. […] Thereafter ChIP was performed using anti-FLAG (Sigma) and anti-TNF-R1 (Santa Cruz) as described (Bai et al., 2007). Pelleted DNA was quantified by qPCR using the primers against PDK4 and UCP-3 promoters flanking the nuclear receptor site (Table 3 and 6). The results were normalized for the signal of the respective inputs (vehicle/PJ34-treated) and were expressed as a percentage. The signal of anti-TNF-R1 (non-specific antibody) was subtracted from the anti-FLAG signal (specific) and the specific signal was plotted. Primers for ChIP are summarized in Supplementary Table 3 and 6.

SMILES	NAD+ levels in SIRT3−/− MEFs (SIRT3)	acetylation status of SOD2 in SIRT3−/− MEFs (SIRT3)	expression of oxidative metabolism regulators and mitochondrial genes in quadriceps muscle (C57Bl/6J mice; HFD 16 weeks)	mitochondrial DNA content in muscle (C57Bl/6J mice; HFD 16 weeks)	mitochondrial proteins (Complex V ATP synthase subunit α, porin) in muscle, liver and BAT (C57Bl/6J mice; HFD 16 weeks)	mitochondrial proteins in brain or WAT (C57Bl/6J mice; HFD 16 weeks)	acetylation of SIRT1 and SIRT3 targets (FOXO1, SOD2) in skeletal muscle, liver and BAT (C57Bl/6J mice; HFD 16 weeks, NR 400 mg/kg/day)	acetylation status of the SIRT2 target tubulin (C57Bl/6J mice; NR 400 mg/kg/day)	PGC-1 binding to the UCP3 promoter (PDK4 and UCP-3 promoters)	PGC-1α recruitment to the PDK4 promoter (PDK4 and UCP-3 promoters)
NC(=O)c1ccc[n+]([C@@H]2O[C@H](CO)[C@@H](O)[C@H]2O)c1 [NR, nicotinamide riboside]	increased to similar levels as in SIRT3^+/+ MEFs	unable to decrease the acetylation status of SOD2	either an elevated expression or a strong tendency towards an increase	increased in muscle	prominent increase in mitochondrial proteins	such change was not observed in brain or WAT	prominent deacetylation	could not detect changes	–	–
CN(C)CC(=O)Nc1ccc2[nH]c(=O)c3ccccc3c2c1 [PJ34]	–	–	–	–	–	–	–	–	not regulated through the binding of PGC-1 to its promoter	increased PGC-1α recruitment to target-genes
